This experiment deals with BDF1 mice, P388 leukemia ip, median survival T/C. Kind of experiment: NCI In Vivo Anticancer Drug Screen. Data for tumor model P388 Leukemia (intraperitoneal) in B6D2F1 (BDF1) mice. The following applies: endpoint: median survival time, higher = longer survival. In short, it runs like this: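 Mice carrying the transplantable tumour receive compound or vehicle. Survival is followed in each arm, and the treated measure is divided by the vehicle measure.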

[1] abbreviates: dose: 200.0 mg/kg/injection, schedule: Q04DX003 (ip), vehicle: Klucel (hydroxypropylcellulose) (HPC).
The mark [2] stands for this setting: dose: 50.0 mg/kg/injection, schedule: Q01DX009 (ip), vehicle: saline with Tween-80.
The mark [3] stands for this setting: dose: 100.0 mg/kg/injection, schedule: Q01DX009 (ip), vehicle: saline with Tween-80.
Setting [4] is: dose: 200.0 mg/kg/injection, schedule: Q01DX009 (ip), vehicle: saline with Tween-80.

The structures appear in SMILES notation. Where “and” joins values, the source holds several entries; their conditions need not be identical. Equal values may be shown once. Toxic doses and inconclusive results are not listed. Starred links: 1 amine or outer side, 2 acyl side, 3 side chain; linkers in the order of their positions; H or OH if unused. Positions of bridges follow the written chain, without caps; N, C: chain ends. Non-standard residues stand in square brackets, D forms with d. Residues, ends and D or L forms follow the SMILES beside them. Chains are numbered I, II in the order given. Actinocin(1to9) = Cc1c2oc3c(C)ccc(C(=O)[*:2])c3nc-2c(C(=O)[*:1])c(N)c1=O; NMeV = CN[CH](C(=O)O)C(C)C; Sar = CNCC(=O)O

For `CCC(C)C1NC(=O)C(NC(=O)c2c3nc4c(C(=O)NC5C(=O)NC(C(C)CC)C(=O)N6CCCC6C(=O)N(C)CC(=O)N(C)C(C(C)C)C(=O)OC5C)ccc(C)c4oc-3c(C)c(=O)c2N)C(C)OC(=O)C(C(C)C)N(C)C(=O)CN(C)C(=O)C2CCCN2C1=O` (stereo not drawn) (I: TIP[Sar][NMeV] / II: TIP[Sar][NMeV]; ester I:1-I:C, II:1-II:C; linker I:N-II:N via Actinocin(1to9); configuration not given here), the T/C runs as follows: (dose: 0.05 mg/kg/injection, schedule: Q01DX010 (ip), vehicle: saline) 245 % of control; (dose: 0.1 mg/kg/injection, schedule: Q01DX010 (ip), vehicle: saline) 300 % of control; (dose: 0.2 mg/kg/injection, schedule: Q01DX001 (ip), vehicle: water) 162 % of control; (dose: 0.4 mg/kg/injection, schedule: Q01DX001 (ip), vehicle: water) 157 % of control; (dose: 0.8 mg/kg/injection, schedule: Q01DX001 (ip), vehicle: water) 166 % of control; (dose: 1.6 mg/kg/injection, schedule: Q01DX001 (ip), vehicle: water) 86 % of control. Besides, the T/C reads like this: (dose: 3.1 micrograms/kg/injection, schedule: Q01DX001 (ip), vehicle: saline) 113 % of control; (dose: 3.1 micrograms/kg/injection, schedule: Q01DX010 (ip), vehicle: saline) 180 % of control; (dose: 3.1 micrograms/kg/injection, schedule: Q04DX003 (ip), vehicle: saline) 109 % of control; (dose: 6.2 micrograms/kg/injection, schedule: Q01DX010 (ip), vehicle: saline) 175 % of control; (dose: 6.3 micrograms/kg/injection, schedule: Q01DX001 (ip), vehicle: saline) 118 % of control; (dose: 6.3 micrograms/kg/injection, schedule: Q04DX003 (ip), vehicle: saline) 118 % of control. Besides, the T/C reads like this: (dose: 12.5 micrograms/kg/injection, schedule: Q01DX001 (ip), vehicle: saline) 122 % of control; (dose: 12.5 micrograms/kg/injection, schedule: Q01DX009 (ip), vehicle: water) 170 % of control; (dose: 12.5 micrograms/kg/injection, schedule: Q01DX010 (ip), vehicle: saline) 185 % of control; (dose: 25.0 micrograms/kg/injection, schedule: Q01DX001 (ip), vehicle: saline) 122 % of control; (dose: 25.0 micrograms/kg/injection, schedule: Q01DX009 (ip), vehicle: water) 189 % of control; (dose: 25.0 micrograms/kg/injection, schedule: Q01DX010 (ip), vehicle: saline) 220 % of control. For the same compound, the T/C runs as follows: (dose: 25.0 micrograms/kg/injection, schedule: Q04DX003 (ip), vehicle: saline) 150 % of control; (dose: 50.0 micrograms/kg/injection, schedule: Q01DX009 (ip), vehicle: water) 200 % of control; (dose: 50.0 micrograms/kg/injection, schedule: Q01DX010 (ip), vehicle: saline) 215 % of control; (dose: 50.0 micrograms/kg/injection, schedule: Q04DX003 (ip), vehicle: saline) 181 % of control; (dose: 75.0 micrograms/kg/injection, schedule: Q04DX003 (ip), vehicle: water) 162 % of control; (dose: 100.0 micrograms/kg/injection, schedule: Q01DX009 (ip), vehicle: water) 206 % of control. In addition, the T/C is 295 % of control (dose: 100.0 micrograms/kg/injection, schedule: Q01DX010 (ip), vehicle: saline); 190 % of control (dose: 100.0 micrograms/kg/injection, schedule: Q04DX003 (ip), vehicle: saline); 172 % of control (dose: 150.0 micrograms/kg/injection, schedule: Q04DX003 (ip), vehicle: water); 177 % of control (dose: 200.0 micrograms/kg/injection, schedule: Q01DX001 (ip), vehicle: saline); 110 % of control (dose: 200.0 micrograms/kg/injection, schedule: Q01DX010 (ip), vehicle: saline); 200 % of control (dose: 200.0 micrograms/kg/injection, schedule: Q04DX003 (ip), vehicle: saline). Besides, the T/C is, setting by setting: (dose: 300.0 micrograms/kg/injection, schedule: Q04DX003 (ip), vehicle: water) 209 % of control; (dose: 400.0 micrograms/kg/injection, schedule: Q01DX001 (ip), vehicle: saline) 190 % of control; (dose: 400.0 micrograms/kg/injection, schedule: Q04DX003 (ip), vehicle: saline) 231 % of control; (dose: 600.0 micrograms/kg/injection, schedule: Q04DX003 (ip), vehicle: water) 224 % of control.
As for `CN(C)c1ccc(/C=C2\C=Cc3ccccc32)cc1Br`, the T/C (dose: 25.0 mg/kg/injection, schedule: Q04DX003 (sc), vehicle: olive oil, sesame oil, peanut oil) was 95 % of control; the T/C (dose: 50.0 mg/kg/injection, schedule: Q04DX003 (sc), vehicle: olive oil, sesame oil, peanut oil) was 100 % of control; the T/C (dose: 100.0 mg/kg/injection, schedule: Q04DX003 (sc), vehicle: olive oil, sesame oil, peanut oil) is 87 % of control.
As to `CN1CCc2cc3c4cc2C1Cc1ccc(O)c(c1)Oc1ccc(cc1)CC1c2c(cc(O)c(c2O4)O3)CCN1C` (stereo not drawn), the T/C (dose: 7.5 mg/kg/injection, schedule: Q01DX009 (ip), vehicle: saline with Tween-80) was 90 % of control.
For the compound `COC(=O)/C=C/c1cccnc1`, the T/C is 100 % of control (dose: 25.0 mg/kg/injection, schedule: Q04DX003 (ip), vehicle: Klucel (hydroxypropylcellulose) (HPC)); 90 % of control (dose: 50.0 mg/kg/injection, schedule: Q04DX003 (ip), vehicle: Klucel (hydroxypropylcellulose) (HPC)); 95 % of control (dose: 100.0 mg/kg/injection, schedule: Q04DX003 (ip), vehicle: Klucel (hydroxypropylcellulose) (HPC)); 90 % of control under setting [1].
With `OCC1CC1c1ccccc1` (stereo not drawn), the T/C under setting [2] was 101 % of control, the T/C under setting [3] is 102 % of control and the T/C under setting [4] is 109 % of control.
Taken in the same sequence, the figures for `O=[N+]([O-])c1ccc(N/N=C/C(Br)(Br)Br)c([N+](=O)[O-])c1` were 111 % of control, 104 % of control and 103 % of control.
As for `COc1ccc(OC)c(C(=O)C[n+]2ccccc2)c1`, the T/C by setting is: (dose: 25.0 mg/kg/injection, schedule: Q01DX009 (ip), vehicle: saline with Tween-80) 91 % of control; under setting [2], 91 % of control.
As for `COc1ccc(N2C(=O)CC(Sc3ccccc3N)C2=O)cc1` (stereo not drawn), the T/C by setting is: (dose: 50.0 mg/kg/injection, schedule: Q01DX001 (ip), vehicle: Klucel (hydroxypropylcellulose) (HPC)) 100 % of control; (dose: 100.0 mg/kg/injection, schedule: Q01DX001 (ip), vehicle: Klucel (hydroxypropylcellulose) (HPC)) 104 % of control.
As to `CC1OC(OCc2cc(O)c3c(c2)C(C2OC(CO)C(O)C(O)C2O)c2cccc(O)c2C3=O)C(O)C(O)C1O` (stereo not drawn), the T/C runs as follows: (dose: 50.0 mg/kg/injection, schedule: Q04DX003 (ip), vehicle: water) 105 % of control; (dose: 100.0 mg/kg/injection, schedule: Q04DX003 (ip), vehicle: water) 101 % of control; (dose: 200.0 mg/kg/injection, schedule: Q04DX003 (ip), vehicle: water) 90 % of control.
Regarding `Cc1cc2nc3ccc(=[N+](C)C)cc-3sc2cc1N`, the T/C reads like this: (dose: 25.0 mg/kg/injection, schedule: Q01DX009 (ip), vehicle: saline) 90 % of control and 113 % of control; (dose: 25.0 mg/kg/injection, schedule: Q04DX003 (ip), vehicle: saline) 109 % of control and 96 % of control; (dose: 50.0 mg/kg/injection, schedule: Q01DX009 (ip), vehicle: saline) 100 % of control and 113 % of control; (dose: 50.0 mg/kg/injection, schedule: Q04DX003 (ip), vehicle: saline) 114 % of control; (dose: 100.0 mg/kg/injection, schedule: Q04DX003 (ip), vehicle: saline) 121 % of control.
Regarding `C/C(=C/B1OCCO1)CCl`, the T/C runs as follows: (dose: 100.0 mg/kg/injection, schedule: Q04DX003 (ip), vehicle: saline sonified) 105 % of control; (dose: 200.0 mg/kg/injection, schedule: Q04DX003 (ip), vehicle: saline sonified) 100 % of control; (dose: 400.0 mg/kg/injection, schedule: Q04DX003 (ip), vehicle: saline sonified) 110 % of control.
For the compound `CCCCc1ccc2nc(NC(=O)OC)[nH]c2c1`, the T/C reads like this: (dose: 100.0 mg/kg/injection, schedule: Q04DX003 (ip), vehicle: other) 174 % of control; (dose: 100.0 mg/kg/injection, schedule: Q04DX003 (ip), vehicle: saline with Tween-80) 169 % of control; under setting [1], 160 % of control; (dose: 200.0 mg/kg/injection, schedule: Q04DX003 (ip), vehicle: other) 93 % of control; (dose: 200.0 mg/kg/injection, schedule: Q04DX003 (ip), vehicle: saline with Tween-80) 96 % of control.

The values above are taken from PubChem BioAssay AID328 (DTP/NCI, 2004).
